Assay results published in publication PMC3247180, “Polyamidoamine (PAMAM) dendrimer conjugate specifically activates the A3 adenosine receptor to improve post-ischemic/reperfusion function in isolated mouse hearts” (BMC Pharmacology, 2011).
Entries after “also recorded” stand apart in the source; their conditions may differ.

Legend:
[1] = molecular target: T1, mA3AR (Mus musculus, UniProt Q61618); experiment: Radioligand ([125I]I-AB-MECA) competition binding, mA3AR
T1 construct: expressed in transfected cells; host or cells: HEK293
T1 sequence (Q61618 1-319): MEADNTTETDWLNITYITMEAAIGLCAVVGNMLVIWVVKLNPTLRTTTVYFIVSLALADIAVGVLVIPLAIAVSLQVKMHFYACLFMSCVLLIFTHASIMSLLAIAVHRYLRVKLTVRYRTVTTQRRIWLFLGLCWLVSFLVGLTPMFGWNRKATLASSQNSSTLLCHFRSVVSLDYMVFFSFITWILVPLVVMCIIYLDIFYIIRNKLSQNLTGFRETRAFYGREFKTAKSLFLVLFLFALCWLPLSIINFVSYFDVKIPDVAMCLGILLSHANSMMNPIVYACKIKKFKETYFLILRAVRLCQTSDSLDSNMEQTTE
Experimental: (§1) The competition assays were performed as previously published. Briefly, to prepare the membranes, HEK293 cells stably expressing recombinant mARs were harvested and homogenized in 10 mM Na^+-HEPES buffer (pH 7.4) with 10 mM EDTA and 0.1 mM benzamidine. The cell lysates were centrifuged (35,000 × g for 25 min; 4°C), and the pellets were resuspended in 10 mM Na^+-HEPES buffer (pH 7.4) with 1 mM EDTA and 0.1 mM benzamidine. The suspensions were homogenized and centrifuged again (35,000 × g for 25 min; 4°C). The resultant pellets were re-suspended in buffer containing 10% sucrose and stored at -80°C until use. For the radioligand binding assays, 50 μg cell membranes (100 μL) were incubated in 10 mM Na^+-HEPES buffer (pH 7.4) with 5 mM MgCl2, 5 U/mL ADA, and [^125I]I-AB-MECA as radioligand. The competing ligands of interest were added at various concentration ranges. The IC50 values were calculated using nonlinear regression analysis by fitting the data to the following equation: binding=nonspecific binding+total binding-nonspecific binding∕1+10^x-logIC50 Inhibition constant (Ki) values were calculated using the Cheng-Prusoff equation [36]. The concentration of MRS5246 reflected the concentration of the dendrimeric complex, not the individual ligand moieties. Therefore, all binding Ki values of this dendrimer are to be considered as Kiapp values.

[2] = molecular target: T2, mA1AR (Mus musculus, UniProt Q60612); experiment: Radioligand ([125I]I-AB-MECA) competition binding, mA1AR; conditions: recombinant mAR on HEK293 cell membranes, Kiapp for the dendrimer conjugate, read-out: mA1AR, Ki or Kiapp
T2 construct: expressed in transfected cells; host or cells: HEK293
T2 sequence (Q60612 1-326): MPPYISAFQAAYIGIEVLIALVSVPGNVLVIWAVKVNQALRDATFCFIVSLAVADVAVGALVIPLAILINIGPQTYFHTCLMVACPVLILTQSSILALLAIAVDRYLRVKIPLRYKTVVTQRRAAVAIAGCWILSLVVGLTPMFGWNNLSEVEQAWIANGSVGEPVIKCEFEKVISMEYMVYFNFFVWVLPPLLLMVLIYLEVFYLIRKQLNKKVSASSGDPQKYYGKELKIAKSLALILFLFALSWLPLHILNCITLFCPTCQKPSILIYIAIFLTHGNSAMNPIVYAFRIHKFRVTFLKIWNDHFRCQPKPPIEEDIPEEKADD
Experimental: as §1

[3] = molecular target: T1, mA3AR; experiment: cAMP functional assay (inhibition of forskolin-stimulated cAMP production), mA3AR in HEK293 cells; assay type: cell-based
Experimental: (§2) The assays of cAMP (3',5'-cyclic adenosine monophosphate) were performed utilizing a modified protocol published by Nordstedt and colleagues, whereby cAMP content was determined by displacement of [^3H]cAMP binding to regulatory subunits of protein kinase A in bovine adrenal extracts. HEK293 cells heterologously expressing the mA3AR were prepared by plating 2.5 × 10^5 cells per well in 24-well plates and cultured overnight in complete media (DMEM with 10% fetal bovine serum/PenStrep/0.4 mg/mL G418) at 37°C. The cells were washed with DMEM/25 mM HEPES (pH 7.4) followed by incubation in DMEM/25 mM HEPES containing 20 μM Ro 20-1274 (phosphodiesterase inhibitor), 1 U/mL ADA and a combination of two selective A2BAR antagonists (300 nM CVT-6883 and 300 nM PSB603) at 37°C for 15 min. Forskolin (20 μM) to induce cAMP production and the test compounds of interest were then simultaneously added. A concentration range of ligands or dendrimer conjugates was tested in triplicate to inhibit cAMP production via activation of A1 or A3 ARs. After incubation at 37°C for 15 min, the media was aspirated, and the cells were lysed with 200 μL ice cold 0.1 M HCl on a shaker at 4°C for 30 min. The lysates were collected and cAMP levels in the acid extract were determined by competitive binding assays as follows. Each lysate sample and cAMP standard were diluted in 0.1 M HCl and subsequently transferred to polypropylene tubes (100 μL). [^3H]cAMP (12,000 cpm/100 μL water/tube) and protein extract from bovine adrenal tissue were then added (240 μg adrenal protein/tube at a concentration of 0.6 μg/μL, in the binding protein buffer: 100 mM Tris-HCl, 250 mM NaCl, 10 mM EDTA, 0.1% 2-mercaptoethanol, pH 8.0), with the extract isolated from bovine adrenal glands as described by Nordstedt, et al. to provide the cAMP binding substrate. The samples were incubated at 4°C for 2.5 hours and harvested through GF/C glass microfiber filters using a cell harvester (Brandel, Gaithersburg, MD) and counted in scintillation cocktail. […]

[4] = molecular target: T2, mA1AR; experiment: cAMP functional assay (inhibition of forskolin-stimulated cAMP production), mA1AR in HEK293 cells; assay type: cell-based
Experimental: as §2, with “After incubation at 37°C for 15 min, the media was aspirated, and the cells were lysed with 200 μL ice cold 0.1 M HCl on a shaker at 4°C for 30 min.” left out, “Each lysate sample and cAMP standard were diluted in 0.1 M HCl and subsequently transferred to polypropylene tubes (100 μL). [^3H]cAMP (12,000 cpm/100 μL water/tube) and protein extract from bovine adrenal tissue were then added (240 μg adrenal protein/tube at a concentration of 0.6 μg/μL, in the binding protein buffer: 100 mM Tris-HCl, 250 mM NaCl, 10 mM EDTA, 0.1% 2-mercaptoethanol, pH 8.0), with the extract isolated from bovine adrenal glands as described by Nordstedt, et al. to provide the cAMP binding substrate.” left out

[5] = tested on: isolated mouse hearts; experiment: Langendorff-perfused isolated mouse heart model of I/R (wild-type)
Experimental: MRS5246 and MRS5233 were tested for effects on functional improvement in isolated mouse hearts subjected to global ischemia and reperfusion. The agonists were infused into the coronary circulation of the hearts for 10 min immediately before 20 min of global ischemia. The functional recovery parameters (left ventricular developed pressure [LVDP], rate of contraction [dP/dtmax], rate of relaxation [dP/dtmin], and coronary flow [CF; mL/min/g]) of the hearts were assessed throughout reperfusion and after 45 min of reperfusion and compared to those of control hearts.
Isolated mouse heart experiments were performed as described previously. In brief, hearts were isolated from C57Bl/6J male mice and cannulated via the aorta and perfused in a retrograde fashion by Krebs-Henseleit buffer. Pressure measurements were obtained via a fluid-filled balloon inserted into the left ventricle via the mitral valve and connected to a pressure transducer. The hearts were immersed in warmed perfusion buffer to maintain the hearts at 37°C, and the balloons were inflated to achieve constant end-diastolic pressures of 5 to 10 mm Hg.
The hearts were perfused for 20 min to achieve stabilization and then paced at 420 beats/min for baseline functional measurements. Global ischemia was achieved by closing an in-line stopcock to stop perfusion for 20 min followed by 45 min of reperfusion by re-opening the stopcock. To examine the effect of the ligands and dendrimer conjugates on functional recovery, the hearts were perfused with buffer containing the indicated concentrations of compounds for 10 min immediately before ischemia.
All data are reported as means ± S.E.M. Functional recovery data in the isolated heart studies were analyzed by two-way repeated measures ANOVA. […] Left ventricular functional recoveries at 45 min of reperfusion were compared using one-way analysis of variance followed by Student's t test with the Bonferroni correction or an unpaired Student's t test, as appropriate. P < 0.05 was statistically significant.

[6] = molecular target: hA3AR; conditions: ref [13],[14]; cited from earlier work
[7] = molecular target: hA2AAR; set-up: method as in PMID 19499950, PMID 20036562; conditions: ref [13],[14]; cited from earlier work
[8] = tested on: hA1AR; set-up: method as in PMID 19499950, PMID 20036562; conditions: at 10 μM; ref [13],[14]; cited from earlier work

Ki ([1]; [125I]I-AB-MECA, recombinant mAR on HEK293 cell membranes, Kiapp for the dendrimer conjugate, read-out: mA3AR, Ki or Kiapp): 3.94 ± 0.31 nM | fold greater affinity at mA3AR than at hA3AR ([1]; mouse Ki vs reported human Ki): 5.7 fold | Selectivity (A1 /A3) ([1]; mouse receptors, ratio of binding Ki): 169-fold | Ki [2]: 665 ± 70 nM | agonist efficacy in cAMP assay ([3]; HEK293 cells overexpressing recombinant mARs): full agonists | IC50 ([3]; HEK293 cells, forskolin-stimulated): 4 nM | EC50 ([3]; HEK293 cells, forskolin-stimulated, as printed in Figure 3, read-out: EC50, cAMP functional assay, mouse A3AR): 4 ± 0.3 nM | activity at the mA1AR in cAMP assay ([4]; at 100 μM): inactive | inhibition of cAMP production at the A1AR ([4]; up to 0.1 mM): lacked inhibition
Structure (SMILES): CNC(=O)[C@@]12C[C@@H]1[C@@H](n1cnc3c(NCc4cccc(Cl)c4)nc(C#CCCCCc4cn(CCNC(C)=O)nn4)nc31)[C@H](O)[C@@H]2O [MRS5233]
recovery of LVDP throughout reperfusion vs control ([5]; 1 nM): did not; also recorded: trend in improving LVDP over control | recovery of rates of relaxation and contraction at 45 min reperfusion vs control ([5]; 1 nM): significantly better | recovery of LVDP throughout reperfusion vs control ([5]; 10 nM): significant improvement | recovery of rates of relaxation and contraction at 45 min reperfusion vs control ([5]; 10 nM): significantly better | functional recovery after 20 min ischemia/45 min reperfusion compared to control ([5]; 1 and 10 nM (MRS5246 in Figure 6 also 0.1 nM), infused 10 min before ischemia): improved functional recovery compared to control in a concentration-dependent manner; also recorded: effective at increasing functional recovery; also recorded: significant protection starting at one nanomolar | Ki [6]: 22.3 ± 1.6 nM | Ki [7]: 2440 ± 320 nM | inhibition of radioligand binding at hA1AR [8]: 12 ± 4%
